# Experimental data as given in paper PMC6274180, “Investigating Glycol-Split-Heparin-Derived Inhibitors of Heparanase: A Study of Synthetic Trisaccharides” (Molecules, 2016).
# Target: T1, heparanase (Homo sapiens, UniProt Q9Y251)
# T1 construct: gene HPSE
# T1 sequence (Q9Y251 36-109): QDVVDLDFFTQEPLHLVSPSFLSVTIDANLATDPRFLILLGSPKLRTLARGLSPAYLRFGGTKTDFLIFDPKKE
# T1 sequence (Q9Y251 158-543): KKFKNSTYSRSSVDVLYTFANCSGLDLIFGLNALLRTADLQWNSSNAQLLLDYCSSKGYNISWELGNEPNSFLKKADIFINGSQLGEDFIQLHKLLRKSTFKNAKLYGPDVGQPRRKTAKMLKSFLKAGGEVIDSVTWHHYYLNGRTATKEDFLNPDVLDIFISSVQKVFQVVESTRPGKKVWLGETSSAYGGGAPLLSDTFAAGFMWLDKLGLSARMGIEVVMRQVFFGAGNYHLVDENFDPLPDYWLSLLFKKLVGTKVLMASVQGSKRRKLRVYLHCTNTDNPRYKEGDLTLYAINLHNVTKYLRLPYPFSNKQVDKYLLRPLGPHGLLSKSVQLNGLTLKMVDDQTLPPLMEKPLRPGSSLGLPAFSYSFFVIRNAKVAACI
# Assay: in vitro colorimetric (WST-1) heparanase inhibition assay with fondaparinux as substrate
# Format: biochemical
row,IC50 [µM],SMILES
1,39.9,CO[C@H]1[C@H](O)[C@@H](NS(=O)(=O)O)[C@@H](O[C@H]2[C@H](O)[C@@H](O)[C@H](O[C@H]3[C@H](O)[C@@H](NS(=O)(=O)O)[C@@H]4OC[C@H]3O4)O[C@@H]2C(=O)O)O[C@@H]1COS(=O)(=O)O [compound 1]
2,2.65,"CO[C@H]1[C@H](O)[C@@H](NS(=O)(=O)O)[C@@H](O[C@@H](CO)[C@H](O[C@H](CO)O[C@H]2[C@H](O)[C@@H](NS(=O)(=O)O)[C@@H]3OC[C@H]2O3)C(=O)O)O[C@@H]1COS(=O)(=O)O [compound 2, sodium(2S,3S)-4-hydroxy-2-((R)-2-hydroxy-1-(((1R,2S,3R,4R,5R)-3-hydroxy-4-(sulfonatoamino)-6,8-dioxabicyclo[3.2.1]octan-2-yl)oxy)ethoxy)-3-(((2R,3R,4R,5S,6R)-4-hydroxy-5-methoxy-3-(sulfonatoamino)-6-((sulfonatooxy)methyl)tetrahydro-2H-pyran-2-yl)oxy)butanoate]"
